The text below walks through data of patent US20200247812A1 (Integral Biosciences Private Limited, priority 2018, published 2020).

Counter-ions that a name gives are not always drawn.

One may read the IC50 as the midpoint of a concentration-inhibition curve.

In assay [1] the target is T1, ALK 5 (Homo sapiens, UniProt P36897).
T1 sequence (P36897 34-503): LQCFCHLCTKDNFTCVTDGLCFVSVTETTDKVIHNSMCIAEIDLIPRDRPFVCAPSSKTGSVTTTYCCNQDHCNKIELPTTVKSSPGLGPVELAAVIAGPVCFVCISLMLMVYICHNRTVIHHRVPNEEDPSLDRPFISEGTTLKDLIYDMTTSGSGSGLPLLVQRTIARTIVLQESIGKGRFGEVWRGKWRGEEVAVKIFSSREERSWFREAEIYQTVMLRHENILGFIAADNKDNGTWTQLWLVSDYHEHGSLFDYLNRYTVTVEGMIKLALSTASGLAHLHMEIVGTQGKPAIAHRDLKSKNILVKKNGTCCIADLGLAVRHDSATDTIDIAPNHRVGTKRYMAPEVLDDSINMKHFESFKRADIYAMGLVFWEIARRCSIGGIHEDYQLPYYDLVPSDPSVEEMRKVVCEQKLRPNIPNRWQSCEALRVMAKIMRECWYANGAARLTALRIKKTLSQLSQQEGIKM
The assay is described as follows: In vitro kinase assay (ALK5 IC50, LanthaScreen Terbium labeled TR-FRET). The class given is biochemical. Particulars: TGF-β kinase 6 nM, ATP 10 μM, read-out: Enzyme Activity ALK 5 IC50. The essentials: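 LanthaScreen Tb TR-FRET: ALK5 (6 nM) preincubated 10 min with 3-fold diluted compounds, then 10 μM ATP and 200 nM fluorescent PolyGT substrate added for 1 h at room temperature. Stopped with EDTA/Tb antibody; 520/495 nm emission read. IC50 from four-parameter fit versus DMSO and no-enzyme controls.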
(In general: In TR-FRET formats the signal depends on donor and acceptor labels being close together.)

Assay [2] has as its system HCT116. The experiment in a line: Cell viability assay (resazurin), HCT116. It is filed as cell-based. Particulars: Homo sapiens, HCT-116, 72-144 hr. The method, then: (§1) Different cell lines such as pancreatic, (MIA PaCa-2; ATCC®CRL-1420™ & and Panc-1; CRL-1469™), liver carcinoma (HepG2; ATCC® HB-8065™), lung epithelial carcinoma (A549; ATCC® CCL-185™) and others were seeded in their respective medium (DMEM, Cat #10569044, MEM, Cat #41090036; RPMI, Cat #22400089; all with 10% FBS, Gibco, ThermoFisher) at a cell count of 3000 cells per 100 μl per well in a 96 well edge plate (167425; ThermoFisher). Cells were allowed to grow at 37° C. for 24 hr in 5% CO2 (culture conditions) in a Nuaire incubator (humidified). Serially diluted compounds (100 μl) were added to the culture plate 24 hr later and the cultures were further incubated in culture conditions for specified time depending on doubling time of specific cell line (ranging from 72-144 hr). Experiment was terminated at the completion of incubation time with the drug by replacing the medium with 100 μl of 1 mM of resazurin (R7017; Sigma) prepared in respective culture medium and the plates were further incubated in culture conditions for 4 hr. Fluorescence was then measured using a multimodal plate reader (Biotek Synergy Neo) at an excitation wavelength of 535 nm and emission wavelength of 590 nm to obtain relative fluorescence units. Data analysis was done by subtracting the background fluorescence (only medium blank) value from each reading and then normalizing with the vehicle control (DMSO treated cells) to obtain percent survival/proliferation. Percent survival at different doses was used to calculate IC50 by fitting the curve to the “four-parameter variable slope logistic model” using Prism Graph Pad.
(Resazurin is reduced to fluorescent resorufin, in cell work by metabolically active cells.)

Assay [3] concerns A549. The assay is described as follows: Cell viability assay (resazurin), A549. It is filed as cell-based. Particulars: Homo sapiens, 72-144 hr. As to the method: as §1
The subject of assay [4] is HepG2. The assay is described as follows: Cell viability assay (resazurin), HepG2. The class given is cell-based. Particulars: Homo sapiens, 72-144 hr. As to the method:
as §1

Assay [5] deals with MDA_MB-231. The assay is described as follows: Cell viability assay (resazurin), MDA_MB-231. The class given is cell-based. The conditions noted are these: Homo sapiens, MDA-MB-231, 72-144 hr. The method, then: as §1
Assay [6] has as its system 22Rv1. The experiment in a line: Cell viability assay (resazurin), 22Rv1. It is filed as cell-based. The conditions noted are these: Homo sapiens, 72-144 hr. As to the method: as §1
Assay [7] has as its system A427. The assay is described as follows: Cell viability assay (resazurin), A427. The conditions noted are these: Homo sapiens, A-427, 72-144 hr. The class given is cell-based. As to the method: as §1
Assay [8] concerns AsPC-1. The experiment in a line: Cell viability assay (resazurin), AsPC-1. The class given is cell-based. Particulars: Homo sapiens, ASPC1, 72-144 hr. As to the method:
as §1

In assay [9] the test system is THP1. The assay is described as follows: Cell viability assay (resazurin), THP1. It is filed as cell-based. Particulars: Homo sapiens, THP-1, 72-144 hr. As to the method: as §1
Assay [10] has as its system Panc-10.05. The assay is described as follows: Cell viability assay (resazurin), Panc-10.05. The class given is cell-based. The conditions noted are these: Homo sapiens, Panc1005, 72-144 hr. As to the method: as §1
In assay [11] the test system is human PBMC's. The experiment in a line: Viability in CD3e/CD28 activated human PBMC's (resazurin). It is filed as cell-based. The conditions noted are these: 72 hr. As to the method:
IC50 values of compounds for determining viability in CD3e/CD28 activated human PBMC's (hPBMC-34033, Cat # CC-2702; Lonza) cultured in LGM3 medium, Cat # CC #3211; Lonza). Human PBMC's (0.25×10^6 cells/well) were activated with Anti-human CD3e (0.5 μg/ml, coated overnight at 4° C.; Cat #16-0037-81, eBioscience) and then incubated with serial dilutions of compounds (3 fold, 8 point dose response starting at 30 μM) for 30 min at 37° C., 5% CO2 in an incubator (cell culture conditions) prior to treating them with Anti-human CD28 (0.25 μg/ml soluble; Cat #16-0289-81, eBiosciences). Human PBMC's were further incubated under cell culture conditions for 72 hr following which experiment was terminated by replacing the medium with 100 μl of 1 mM of resazurin (R7017; Sigma) prepared in culture medium and the plates were further incubated in culture conditions for 4 hr. Fluorescence was then measured using a multimodal plate reader (Biotek Synergy Neo) at an excitation wavelength of 535 nm and emission wavelength of 590 nm to obtain relative fluorescence units. Data analysis was done by subtracting the background fluorescence (only medium blank) value from each reading and then normalizing with the vehicle control (DMSO treated cells) to obtain percent survival/proliferation. Percent survival at different doses was used to calculate IC50 by fitting the curve to the “four-parameter variable slope logistic model” using Prism Graph Pad.

Assay [12] has as its system phosphorylation of Smad-2 in THP-1 cells. The assay is described as follows: Inhibition of phosphorylation of Smad-2 in THP-1 cells (Phospho-Smad2 ELISA). The class given is cell-based. (In general: An ELISA detects its analyte on a solid surface through an enzyme-linked reagent.)
Assay [13] deals with Panc-1. The experiment in a line: Cell viability assay (resazurin), Panc-1. The class given is cell-based. Particulars: Homo sapiens, 72-144 hr. As to the method: Different cell lines such as pancreatic, (MIA PaCa-2; ATCC®CRL-1420™ & and Panc-1; CRL-1469™), liver carcinoma (HepG2; ATCC® HB-8065™), lung epithelial carcinoma (A549; ATCC® CCL-185™) and others were seeded in their respective medium (DMEM, Cat #10569044, MEM, Cat #41090036; RPMI, Cat #22400089; all with 10% FBS, Gibco, ThermoFisher) at a cell count of 3000 cells per 100 μl per well in a 96 well edge plate (167425; ThermoFisher). Cells were allowed to grow at 37° C. for 24 hr in 5% CO2 (culture conditions) in a Nuaire incubator (humidified). Serially diluted compounds (100 μl) were added to the culture plate 24 hr later and the cultures were further incubated in culture conditions for specified time depending on doubling time of specific cell line (ranging from 72-144 hr). […] Fluorescence was then measured using a multimodal plate reader (Biotek Synergy Neo) at an excitation wavelength of 535 nm and emission wavelength of 590 nm to obtain relative fluorescence units. Data analysis was done by subtracting the background fluorescence (only medium blank) value from each reading and then normalizing with the vehicle control (DMSO treated cells) to obtain percent survival/proliferation. […]

Assay [14] concerns MCF7. The assay is described as follows: Cell viability assay (resazurin), MCF7. The class given is cell-based. Particulars: Homo sapiens, 72-144 hr. As to the method:
as §1

Assay [15] has as its system phosphorylation of Smad-2 in THP-1 cells. The assay is described as follows: Inhibition of phosphorylation of Smad-2 in THP-1 cells (Phospho-Smad2 ELISA). The class given is cell-based. Particulars: 1.5 h, human TGF-β 20 ng/ml, 90 min, read-out: pSmad2 IC50. The method, then:
IC50 values of compounds for determining inhibition of phosphorylation of Smad-2 in THP-1 cells (ATCC, Cat # ATCC® TIB-202™) cultured in RPMI medium, (Cat #22400089; with 10% FBS, Gibco, ThermoFisher). THP-1 cells (1.0×10^6 cells/well; 6 well plate) were incubated with serial dilutions of compounds (3 fold, 5 point dose response starting at 10 μM) for 60 min at 37° C., 5% CO2 in an incubator (cell culture conditions) prior to treating them with Recombinant Human TGF-β (20 ng/ml soluble; Cat #100-21, Peprotech) for 90 min. The cells were then pelleted and processed for protein estimation and evaluation of pSmad using ELISA kit from Cell Signaling (PathScan(R) Phospho-Smad2 (Ser465/467) Sandwich ELISA; Cat #7348C) as per manufacturer's protocol. Data analysis was done by subtracting the background absorbance (only negative control) value from each reading and then normalizing with the vehicle control (DMSO treated cells) to obtain percent levels of pSmad-2. Percent inhibition thus obtained (by subtracting expression levels of pSmad from 100) at different doses was used to calculate IC50 by fitting the curve to the “four-parameter variable slope logistic model” using Prism Graph Pad.

As for `CN(C)c1[nH]c(=O)c(-c2cc(Cl)ccc2F)cc1Nc1ccnc2[nH]ccc12` [Compound 1.12, 5-((1H-pyrrolo[2,3-b]pyridin-4-yl)amino)-3-(5-chloro-2-fluorophenyl)-6-(dimethylamino)pyridin-2-ol hydrochloride], the IC50 in assay [1] is at most 500 nM; in assay [2], 2640 nM; in assay [3] it was 2760 nM; in assay [4] it was 2640 nM; in [5] it was 2750 nM; in [6], 1530 nM. Besides, the IC50 was 3100 nM in assay [7]; 1820 nM in assay [8]; 635 nM in assay [9]; 2200 nM in assay [10]; 18200 nM in [11]. Besides, the entries for the “% Inhibition of pSmad2” value in assay [12] (3 μg) and in assay [12] (10 μg) were 51.6% and 48.4%, respectively.
Regarding `CC(C)c1[nH]c(=O)c(-c2cc(Cl)ccc2F)cc1Nc1ccncc1C(N)=O` [Compound 1.43, 4-((5-(5-chloro-2-fluorophenyl)-2-isopropyl-6-oxo-1,6-dihydropyridin-3-yl)amino)nicotinamide], the IC50 was at most 500 nM in assay [1]; over 30000 nM in [3]; over 30000 nM in assay [4]; over 30000 nM in [13]; over 30000 nM in assay [5]; over 30000 nM in assay [6]. In addition, the values for the IC50 in assay [7], in assay [14] and in [11] were over 30000 nM, over 10000 nM and over 30000 nM, respectively.
Take `CC(C)c1[nH]c(=O)c(-c2cc(Cl)ccc2F)cc1Nc1ccnc2c1CC(=O)N2` [Compound 1.61, 4-((5-(5-chloro-2-fluorophenyl)-2-isopropyl-6-oxo-1,6-dihydropyridin-3-yl)amino)-1,3-dihydro-2H-pyrrolo[2,3-b]pyridin-2-one]: the IC50 was at most 500 nM in assay [1]; over 30000 nM in [2]; over 30000 nM in assay [4]; over 30000 nM in assay [5]; over 30000 nM in assay [8]; over 30000 nM in assay [14]. Further, in [15], the IC50 was 1330 nM.
Take `C[C@@H](CO)NC(=O)c1cnccc1Nc1cc(-c2cc(Cl)ccc2F)c(=O)[nH]c1N(C)C` [Compound 1.10, (S)-4-((5-(5-chloro-2-fluorophenyl)-2-(dimethylamino)-6-hydroxypyridin-3-yl)amino)-N-(1-hydroxypropan-2-yl)nicotinamide]: the IC50 was at most 500 nM in [1] and 24500 nM in assay [11]. Moreover, the “% Inhibition of pSmad2” value came to 36.7% in [12] (3 μg) and 45.1% in assay [12] (10 μg).
